Test results from patent publication US7910559B2, “Decladinosyl-macrolides with anti-inflammatory activity” (GlaxoSmithKline istrazivacki centar Zagreb d.o.o., priority 2005, dated 2011).
Like-named read-outs stand apart in the source and are kept apart here.

Experiments:
Assay type in all cases: cell-based
human TNF-α = experiment: Inhibition of TNF-α production by stimulated human peripheral blood leukocytes in vitro (ELISA); conditions: Homo sapiens, Leukocyte, PBL, read-out: Percentage of inhibition of TNF-α production; for inhibition at 10 µM: compound 10 μM; for inhibition at 50 µM: compound 50 μM
Procedure: (§1) Substances, used in in vitro experiments, were dissolved in dimethyl sulfoxide (DMSO) (Kemika, Croatia) at concentrations of 50 mM and 10 mM and were further diluted to the final concentrations of […] in 1 mL Dulbecco's modified Eagle medium (DMEM) supplemented with 1% heat inactivated fetal bovine serum (FBS), 1% glutamax, 50 U/ml penicillin, 50 μg/ml streptomycin and 2.5 μg/mL Fungizone (amphotericin B). Media and all media supplements were purchased from Gibco, Australia, except FBS that was from Sigma, USA.
(§2) Peripheral blood leukocytes (PBL) were obtained from venous blood of healthy volunteers by sedimentation on 2% dextran T-500 (Amersham Biosciences, USA) and subsequent centrifugations of leukocyte-rich plasma.
(§3) Peripheral blood leukocytes (PBL), isolated as described above, were seeded in a 48-well plate at a concentration of 3-5×10^6 cell per well in culture medium consisting of RPMI 1640 medium (Institute of Immunology, Croatia) supplemented with 10% heat-inactivated fetal calf serum (FCS, Biowhittaker, USA), 100 U/ml penicillin (Gibco, Australia), 100 μg/ml streptomycin (Gibco, Australia) and 2 mM L-glutamine (Gibco, Australia), and preincubated with the tested compounds for 2 h at 37° C., in an atmosphere of 5% CO2, and 90% humidity. Afterwards, stimuli (Sigma, USA) were added to a final concentration of 2 μg/mL lipopolysaccharide (LPS), 1 μg/mL phorbol 12-myristate 13-acetate (PMA) or 120 μg/mL zymosan. Samples were incubated overnight under conditions described above. At the end of incubation supernatants were transferred to eppendorf tubes and centrifuged for 10 min at 1500 g. Concentrations of human TNF-α, IL-1β, IL-6 and IL-8 were determined in cell supernatants by sandwich ELISA, using capture and detection antibodies (R&D, USA) according to manufacturer's recommendations.
(§4) Inhibition (as percentage) was calculated using the following formula: % inhibition=(1−concentration of cytokines in sample/concentration of cytokines in positive control)×100 where “positive control” refers to stimulated samples not treated with substances.

human IL-1β = experiment: Inhibition of IL-1β production by stimulated human peripheral blood leukocytes in vitro (ELISA); conditions: Homo sapiens, Leukocyte, PBL, read-out: Percentage of inhibition of IL-1β production; for inhibition at 10 µM: compound 10 μM; for inhibition at 50 µM: compound 50 μM
Procedure: as §1, §2, §3, §4

human IL-6 = experiment: Inhibition of IL-6 production by stimulated human peripheral blood leukocytes in vitro (ELISA); conditions: Homo sapiens, Leukocyte, PBL, read-out: Percentage of inhibition of IL-6 production; for inhibition at 10 µM: compound 10 μM; for inhibition at 50 µM: compound 50 μM
Procedure: as §1, §2, §3, §4

human IL-8 = experiment: Inhibition of IL-8 production by stimulated human peripheral blood leukocytes in vitro (ELISA); conditions: Homo sapiens, Leukocyte, PBL, read-out: Percentage of inhibition of IL-8 production; for inhibition at 10 µM: compound 10 μM; for inhibition at 50 µM: compound 50 μM
Procedure: as §1, §2, §3, §4

A549 = conditions: human, 24 h
Procedure: (§5) Anti-inflammatory activity of compounds, i.e. observed inhibition of cytokine production and inhibition of proliferation in vitro, is not a consequence of their cytotoxicity.
(§6) Measurement of the succinate dehydrogenase activity in living cells was performed in order to assess the cytotoxicity of compounds of the invention. Cells were cultured for 24 hours in RPMI medium as described above at 37° C., in the presence of the tested compounds at concentrations of 50 μM and 12.5 μM. Afterwards, MTT [3-(4,5-dimethylthiazole-2-yl)-2,5-diphenyl tetrazolium bromide] (Promega, USA) as detection reagent was added and incubated for 0.5-2 hours. The amount of produced MTT-Formazan was determined spectrophotometrically at 490 nm (Mosmann, J. Immunol. Methods, 1983, 65: 55-63).
(§7) Percentage of viable cells was calculated using the following formula: % viable cells=[…]

Hep G2 = conditions: human, 24 h
Procedure: as §5, §6, §7

THP-1 = conditions: human, 24 h
Procedure: as §5, §6, §7

SMILES	inhibition at 10 µM (human TNF-α; LPS stimulation)	inhibition at 50 µM (human TNF-α; LPS stimulation)	inhibition at 10 µM (human TNF-α; PMA stimulation)	inhibition at 50 µM (human TNF-α; PMA stimulation)	inhibition at 10 µM (human TNF-α; zymosan stimulation)	inhibition at 50 µM (human TNF-α; zymosan stimulation)	inhibition at 10 µM (human IL-1β; LPS stimulation)	inhibition at 50 µM (human IL-1β; LPS stimulation)	inhibition at 10 µM (human IL-1β; PMA stimulation)	inhibition at 50 µM (human IL-1β; PMA stimulation)	inhibition at 10 µM (human IL-1β; zymosan stimulation)	inhibition at 50 µM (human IL-1β; zymosan stimulation)	inhibition at 10 µM (human IL-6; LPS stimulation)	inhibition at 50 µM (human IL-6; LPS stimulation)	inhibition at 10 µM (human IL-6; PMA stimulation)	inhibition at 50 µM (human IL-6; PMA stimulation)	inhibition at 10 µM (human IL-6; zymosan stimulation)	inhibition at 50 µM (human IL-6; zymosan stimulation)	inhibition at 10 µM (human IL-8; LPS stimulation)	inhibition at 50 µM (human IL-8; LPS stimulation)	further results
CC[C@H]1OC(=O)[C@H](C)[C@@H](OC(=O)CCN(CC)CC)[C@H](C)[C@@H](O[C@@H]2O[C@H](C)C[C@H](N(C)C)C2O)[C@](C)(O)C[C@@H](C)CN(C)[C@H](C)[C@@H](O)[C@]1(C)O (stereo in doubt) [Example 12, 3-O-(3-Diethylamino-propionyl)-3-O-decladinosyl-azithromycin]	22%	0%	30%	75%	33%	0%	50%	71%	54%	92%	29%	72%	9%	19%	43%	93%	0%	96%	16%	51%	inhibition at 10 µM (human IL-8; PMA stimulation): 31%; inhibition at 50 µM (human IL-8; PMA stimulation): 27%; inhibition at 10 µM (human IL-8; zymosan stimulation): 20%; inhibition at 50 µM (human IL-8; zymosan stimulation): 52%; Percentage of viable cells after treatment (A549; 12.5 μM): >90%; Percentage of viable cells after treatment (A549; 50 μM): >90%; Percentage of viable cells after treatment (Hep G2; 12.5 μM): >95%; Percentage of viable cells after treatment (Hep G2; 50 μM): >90%; Percentage of viable cells after treatment (THP-1; 12.5 μM): >90%; Percentage of viable cells after treatment (THP-1; 50 μM): 100%
CC[C@H]1OC(=O)[C@H](C)[C@@H](OC(=O)CCN2CCN(CCN(C)C)CC2)[C@H](C)[C@@H](O[C@@H]2O[C@H](C)C[C@H](N(C)C)[C@H]2O)[C@](C)(OC)C[C@@H](C)C(=O)N[C@H](C)[C@@H](O)[C@]1(C)O [Example 19, 6-O-Methyl-3-O-decladinosyl-3-O-{3-[4-(2-Dimethylamino-ethyl)-piperazin-1-yl]-propionyl}-9a-aza-9a-homoerythromycin A]	11%	7%	53%	82%	18%	12%	44%	73%	66%	86%	35%	80%	16%	56%	56%	61%	19%	44%	6%	32%	inhibition at 10 µM (human IL-8; PMA stimulation): 14%; inhibition at 50 µM (human IL-8; PMA stimulation): 0%; inhibition at 10 µM (human IL-8; zymosan stimulation): 9%; inhibition at 50 µM (human IL-8; zymosan stimulation): 26%; Percentage of viable cells after treatment (A549; 12.5 μM): 100%; Percentage of viable cells after treatment (A549; 50 μM): >95%; Percentage of viable cells after treatment (Hep G2; 12.5 μM): 100%; Percentage of viable cells after treatment (Hep G2; 50 μM): 100%; Percentage of viable cells after treatment (THP-1; 12.5 μM): 100%; Percentage of viable cells after treatment (THP-1; 50 μM): 100%
CC[C@H]1OC(=O)[C@H](C)[C@@H](OC(=O)CCN2CCCN(CCCN3CCCC3)CC2)[C@H](C)[C@@H](O[C@@H]2O[C@H](C)C[C@H](N(C)C)[C@H]2O)[C@](C)(OC)C[C@@H](C)C(=O)N[C@H](C)[C@@H](O)[C@]1(C)O [Example 24, 6-O-Methyl-3-O-decladinosyl-3-O{3-[4-(3-Pyrrolidin-1-yl-propyl)-[1,4]diazepan-1-yl]-propionyl}-9a-aza-9a-homoerythromycin A]	0%	91%	65%	68%	0%	92%	65%	98%	84%	98%	70%	100%	8%	98%	48%	89%	33%	100%	0%	94%	inhibition at 10 µM (human IL-8; PMA stimulation): 3%; inhibition at 50 µM (human IL-8; PMA stimulation): 81%; inhibition at 10 µM (human IL-8; zymosan stimulation): 0%; inhibition at 50 µM (human IL-8; zymosan stimulation): 92%; Percentage of viable cells after treatment (A549; 12.5 μM): >90%; Percentage of viable cells after treatment (A549; 50 μM): >90%; Percentage of viable cells after treatment (Hep G2; 12.5 μM): >95%; Percentage of viable cells after treatment (Hep G2; 50 μM): 100%; Percentage of viable cells after treatment (THP-1; 12.5 μM): 100%; Percentage of viable cells after treatment (THP-1; 50 μM): 100%
